The values that follow come from US20110269825A1, “Modified Thromboxane A2 Receptor Promoter Sequence” (priority 2008, published 2011).

For one data set, the system named is Prm1. The settings on record: cited from earlier work.
A further data set concerns Prm3. The settings on record: cited from earlier work.
Data set [1] deals with human tissue factor (hTF). Description: Immunoblot analysis of promoter-driven human tissue factor expression in HEL cells. The class given is cell-based. The conditions noted are these: 48 h post-transfection, compared with CMV promoter (pcDNA3.1(−):hTF) and pcDNA3.1(−). The protocol: The expression of WT1, Sp1, Egr1, NF-E2, GATA-1 and Ets-1 proteins in HEL cells was confirmed by western blot analysis. Briefly, whole cell protein was resolved by SDS-PAGE (10% acrylamide gels) and transferred to polyvinylidene difluoride (PVDF) membrane according to standard methodology. Membranes were screened using anti-WT1, anti-NF-E2, anti-Sp1, anti-Egr1, anti-GATA-1 or anti-Ets-1 sera in 5% non fat dried milk in 1×TBS (0.01 M Tris/HCl, 0.1 M NaCl) for 2 h at room temperature followed by washing and screening using goat anti-rabbit horseradish peroxidase (sc-2204) followed by chemiluminescence detection, as described by the supplier (Roche Applied Science). For PMA studies, HEL cells were pre-incubated for the indicated amount of time with 100 nM PMA, with 10 μM PD98059, with 100 nM PMA plus 10 μM PD98059 or, as a control, with vehicle [0.1% (v/v) DMSO]. Whole cell protein (60 μg per lane) was resolved by SDS-PAGE (10% acrylamide gels) and transferred to polyvinylidene difluoride (PVDF) membrane according to standard methodology. […] Cells were harvested 48 hr post-transfection and aliquots ([…]) were analysed by SDS-PAGE/western blot analysis. As a positive control for hTF expression, […] of a commercial control Tissue-Factor Biomass was also analysed. […]
Background: Immunoblotting shows a protein as a band on a membrane.

For data set [2], the system named is 1° hAoSMC (primary human aortic smooth muscle) cells. Put plainly: Dual luciferase genetic reporter assay in 1° hAoSMC. The class given is cell-based. The settings on record: for Mean firefly relative to renilla luciferase activity: co-transfected with pRL-TK. The protocol: (§1) HEL and EA.hy 926 cells were co-transfected with the various pGL3Basic-recombinant plasmids (2 mg), encoding firefly luciferase, along with pRL-TK (200 ng), encoding renilla luciferase, using DMRIE-C® transfection reagent. HEK293, WI-38, and 1° hAoSMCs were co-transfected with the pGL3Basic-recombinant plasmids (2 mg), along with pRL-TK (200 ng), using Effectene transfection reagent. In all cases, cells co-transfected with pRL-TK (200 ng) in the presence of either the pGL3Control vector (firefly luciferase gene under the control of the SV40 promoter; 2 mg) or the promoter-less pGL3Basic empty vector (2 mg), which served as positive and negative controls, respectively. Firefly and renilla luciferase expression was assayed some 48 h post-transfection using the Dual-Luciferase Reporter Assay System™, as described (Coyle et al., 2005). Relative firefly to renilla luciferase activity (arbitrary units) was calculated as a ratio and was expressed in relative luciferase units (RLU). To investigate the effect of over-expression of exon 5 (+ or −) or KTS (+ or −) isoforms of WT1 on Prm1-directed gene expression, HEL cells were co-transfected with either pGL3b:Prm1 or pGL3b:Prm1D (1.5 μg) plus 200 ng of pRL-TK along with either pcDNA3:WT1 (+/+), pcDNA3:WT1 (+/−), pcDNA3:WT1 (−/+), pcDNA3:WT1 (−/−) (0.5 μg), or as a control, pcDNA3 (0.5 μg). Cells were harvested 48 h post-transfection and assayed for luciferase activity, as above, or subjected to western blot or RT-PCR analysis. The plasmids pcDNA3:WT1 (+/+), pcDNA3:WT1 (+/−), pcDNA3:WT1 (−/+) and pcDNA3:WT1 (−/−) were generously donated by Dr. Charles T. Roberts JR, Oregon National Primate Research Center, Oregon, USA and have been previously described (Tajinda et al., 1999). For PMA studies, approximately 32 h post-transfection, the medium was supplemented with PMA (100 nM), with PMA (100 nM) and PD98059 (10 μM) or, as a control, with vehicle [0.1% (v/v) DMSO]. After 16 h, cells were assayed for firefly and renilla luciferase using the Dual-Luciferase Reporter Assay System™ as previously described (Coyle et al., 2005). […]
(In general: A reporter such as luciferase makes a cellular process visible.)

For data set [3], the system named is HEK (Human embryonic kidney) 293 cells. Put plainly: Dual luciferase genetic reporter assay in HEK 293 cells. The class given is cell-based. The protocol: as §1
Data set [4] has as its system EA.hy 926 (human endothelial) cells. Description: Dual luciferase genetic reporter assay in EA.hy 926 cells. The class given is cell-based. The protocol: as §1
The test system of a further data set is HEL 92.1.7 cells. Description: Dual luciferase genetic reporter assay of promoter-directed luciferase expression in HEL cells. The class given is cell-based, human. As to the method: HEL and EA.hy 926 cells were co-transfected with the various pGL3Basic-recombinant plasmids (2 mg), encoding firefly luciferase, along with pRL-TK (200 ng), encoding renilla luciferase, using DMRIE-C® transfection reagent. HEK293, WI-38, and 1° hAoSMCs were co-transfected with the pGL3Basic-recombinant plasmids (2 mg), along with pRL-TK (200 ng), using Effectene transfection reagent. In all cases, cells co-transfected with pRL-TK (200 ng) in the presence of either the pGL3Control vector (firefly luciferase gene under the control of the SV40 promoter; 2 mg) or the promoter-less pGL3Basic empty vector (2 mg), which served as positive and negative controls, respectively. Firefly and renilla luciferase expression was assayed some 48 h post-transfection using the Dual-Luciferase Reporter Assay System™, as described (Coyle et al., 2005). Relative firefly to renilla luciferase activity (arbitrary units) was calculated as a ratio and was expressed in relative luciferase units (RLU). To investigate the effect of over-expression of exon 5 (+ or −) or KTS (+ or −) isoforms of WT1 on Prm1-directed gene expression, HEL cells were co-transfected with either pGL3b:Prm1 or pGL3b:Prm1D (1.5 μg) plus 200 ng of pRL-TK along with either pcDNA3:WT1 (+/+), pcDNA3:WT1 (+/−), pcDNA3:WT1 (−/+), pcDNA3:WT1 (−/−) (0.5 μg), or as a control, pcDNA3 (0.5 μg). Cells were harvested 48 h post-transfection and assayed for luciferase activity, as above, or subjected to western blot or RT-PCR analysis. The plasmids pcDNA3:WT1 (+/+), pcDNA3:WT1 (+/−), pcDNA3:WT1 (−/+) and pcDNA3:WT1 (−/−) were generously donated by Dr. Charles T. Roberts JR, Oregon National Primate Research Center, Oregon, USA and have been previously described (Tajinda et al., 1999). For PMA studies, approximately 32 h post-transfection, the medium was supplemented with PMA (100 nM), with PMA (100 nM) and PD98059 (10 μM) or, as a control, with vehicle [0.1% (v/v) DMSO]. After 16 h, cells were assayed for firefly and renilla luciferase using the Dual-Luciferase Reporter Assay System™ as previously described (Coyle et al., 2005). The plasmid pCMV5-NAB1, containing the entire coding sequence for NAB1, was generously donated by Dr. Gerald Thiel, University of Saarland Medical Center, Homburg, Germany, and has been described previously (Thiel et al., 2000). To investigate the effect of over-expression of NAB1 on the PMA-mediated induction of Prm1-directed gene expression, HEL cells were transiently co-transfected with pGL3b:Prm1 (2 μg) plus pRL-TK (200 ng) along with either pCMV5 (control) or pCMV:NAB1 (1 μg). Cells were harvested 48 h post-transfection and assayed for luciferase activity, as above.

Data set [5] deals with WI-38 (human lung fibroblast) cells. Description: Dual luciferase genetic reporter assay in WI-38 cells. The class given is cell-based. The protocol:
as §1

In data set [6] the test system is Prm1-directed luciferase expression. Put plainly: Effect of over-expression of WT1 isoforms, Egr1 or NAB1 on Prm1-directed luciferase expression in HEL cells. The class given is cell-based, human. As to the method:
as §1, with “μg).” for “μg). Cells were harvested 48 h post-transfection and assayed for luciferase activity, as above, or subjected to western blot or RT-PCR analysis. The plasmids pcDNA3:WT1 (+/+), pcDNA3:WT1 (+/−), pcDNA3:WT1 (−/+) and pcDNA3:WT1 (−/−) were generously donated by Dr. Charles T. Roberts JR, Oregon National Primate Research Center, Oregon, USA and have been previously described (Tajinda et al., 1999). For PMA studies, approximately 32 h post-transfection, the medium was supplemented with PMA (100 nM), with PMA (100 nM) and PD98059 (10 μM) or, as a control, with vehicle [0.1% (v/v) DMSO]. After 16 h, cells were assayed for firefly and renilla luciferase using the Dual-Luciferase Reporter Assay System™ as previously described (Coyle et al., 2005).”

In the case of `CCCCC/C=C/C=C1/C(=O)C=C[C@@H]1C/C=C\CCCC(=O)O` [15d-PGJ2, 15-deoxy-Δ12,14-prostaglandin J2], the “Effect on Prm1” value in the data set on Prm1 is on record as “had no effect on Prm1”. In the data set on Prm3, the “Effect on transcriptional activity of Prm3” value is “suppressed the transcriptional activity of Prm3”.
As to “Prm1^GC*^(−8146): Prm1 with GC element at −8146 mutated (SEQ ID NO:13) (DNA CGGGGGTCGTGGGGTGGATGGCGGGCCAA; expressed or natural sequence; listed as Homo sapiens)”, in data set [1], the “Level of human tissue factor expression driven by the promoter” value is recorded as “significantly greater”. In addition, the “Ratio of luciferase expression relative to that directed by pGL3Control” value came to 1.18 in data set [2]; 0.69 in data set [3] (HEK); 0.06 in data set [4] (EA.hy 926); 2.65 in the data set on HEL 92.1.7 cells (HEL); 0.51 in data set [5] (WI-38). Also, the “Mean firefly relative to renilla luciferase activity” value in data set [2] is on record as 82.67 RLU; in data set [2] (listed as pGL3BPrm1GC-8146), 82.668 RLU; in [3] (HEK 293 cells, co-transfected with pRL-TK), 6.9 RLU; in [4] (EA.hy 926 cells, co-transfected with pRL-TK), 3.11 RLU; in the data set on HEL 92.1.7 cells (HEL cells, co-transfected with pRL-TK, 48 h post-transfection) it was 21.5 RLU; in data set [5] (WI-38 cells, co-transfected with pRL-TK) it was 59.01 RLU. The “Statistical significance of luciferase expression vs Prm1” value in data set [3] (HEK 293, ↑ = increase) is recorded as “ns”; in data set [4] (EA.hy 926, ↑ = increase), “ns”; in data set [5] (WI-38, ↑ = increase), “ns”. For the same molecule, the “Increase in luciferase activity relative to Prm1 (−8500)” value with HEL 92.1.7 cells (HEL, 5′ deletion or site-directed mutation of Prm1) amounted to 2.5 fold. For the same molecule, in the data set with HEL 92.1.7 cells (HEL, comparator as named in the words or parent fragment), the “Luciferase expression compared with another construct, in words” value is “significantly stronger promoters”.

B1: NAB1: Egr1 co-repressor NGFI-A-binding protein 1, over-expressed from pCMV5-NAB1 (protein)
chain: MAAALPRTLGELQLYRILQKANLLSYFDAFIQQGGDDVQQLCEAGEEEFLEIMALVGMASKPLHVRRLQKALRDWVTNPGLFNQPLTSLPVSSIPIYKLPEGSPTWLGISCSSYERSSNAREPHLKIPKCAATTCVQSLGQGKSDVVGSLALQSVGESRLWQGHHATESEHSLSPADLGSPASPKESSEALDAAAALSVAECVERMAPTLPKSDLNEVKELLKTNKKLAKMIGHIFEMNDDDPHKEEEIRKYSAIYGRFDSKRKDGKHLTLHELTVNEAAAQLCVKDNALLTRRDELFALARQISREVTYKYTYRTTKSKCGERDELSPKRIKVEDGFPDFQDSVQTLFQQARAKSEELAALSSQQPEKVMAKQMEFLCNQAGYERLQHAERRLSAGLYRQSSEEHSPNGLTSDNSDGQGERPLNLRMPNLQNRQPHHFVVDGELSRLYPSEAKSHSSESLGILKDYPHSAFTLEKKVIKTEPEDSR
For B1, the “Effect of NAB1 over-expression on PMA-induction of Prm1 activity” value in [6] (HEL, PMA 100 nM 16 h) was “significantly reduced the PMA-induction of Prm1 activity”. The “Effect of NAB1 over-expression on Prm1-directed luciferase activity” value in data set [6] (vehicle-treated HEL cells) was “did not significantly affect Prm1-directed luciferase activity”.
